Read-outs that look alike come from different tables or passages of the source.
Experiments:
[1] = system: Megaloblastic Bone Marrow Cells (B12 Deficiency); conditions: cited from earlier work
[2] = system: Megaloblastic Bone Marrow Cells (Folate Deficiency); conditions: cited from earlier work
[3] = Evaluation of NHANES 1999-2002 data: hematological markers by serum folate decile, supplement use and unmetabolized folic acid; type: in vivo, human; conditions: for effect on production of hemoglobin: seniors aged >=60 y, serum hemoglobin with rising serum folate, with or without unmetabolized folic acid; for impact on homocysteine, methylmalonic acid and lactate dehydrogenase: when homocysteine or lactate dehydrogenase levels are elevated; for effect on MCV: with rising serum folate, with or without supplement use
Source text: An evaluation of data gathered through NHANES was undertaken to determine the effect of unmetabolized folic acid on serum hemoglobin concentrations. NHANES monitors the nation's health and nutritional status. The survey is currently implemented as a continuous annual survey and uses a complex multistage probability design to select a representative sample of the non-institutionalized US civilian population. Consistent with NHANES analytic guidelines, this example combines data from two separate survey periods spanning 1999-2002. The methods used herein are described in greater detail in Morris et al., AM. J. CLIN. NUTR. 2012; 91:1733-44, and are repeated herein for a more thorough understanding. A detailed description of blood collection and processing can be found in the NHANES Laboratory Procedures Manual. This particular example focuses on seniors (i.e., those aged ≧60 y), and included 3706 senior survey participants. Hemoglobin concentrations were measured at the MEC laboratory by using a MAXM hematology flow cytometer (Beckman Coulter Inc, Fullerton, Calif.). Detailed methods for all the biochemical assays can be found in the NHANES Laboratory Procedures Manuals. Eligible participants were divided into ten […] based on their serum folate concentrations, so that decile 1 includes the 10% of the participants having the lowest serum folate concentrations, decile 10 includes the 10% of the participants having the highest serum folate concentrations. etc. Participants in each decile were then further subdivided based on the detection of unmetabolized folic acid, and/or the participant's serum B12 or serum iron concentration, and mean hemoglobin concentrations calculated for each decile. Data analyses were performed by using SUDAAN release 9.0 (Research Triangle Institute, Research Triangle Park, N.C.) with appropriate sampling weights, pseudo primary sampling units, and stratification variables to account for the survey's complex sampling design.

[4] = Reanalysis of NHANES 1988-1994 vs 1999-2004: impact of folic acid supplement use on anemia and macrocytosis; type: in vivo, human; conditions: men; 1988-1994 to 1999-2004, with increased use of folic acid supplements
Source text: In order to determine whether folic acid supplements could be affecting the incidence of macrocytosis in the United States or whether folic acid supplements could be negatively influencing macrocytic processes, NHANES data reported in Ganji et al., AM. J. CLIN. NUTR. 2009; 89:363-71, were reanalyzed, this time over an extended time period from 1988-1994 until 1999-2004, to determine the impact of supplement use on the incidence of macrocytosis and mean corpuscular volume. Unless otherwise indicated, NHANES data collection methods were substantially the same as in Examples 1 and 2. This study used data from 4 surveys: NHANES 1988-1994, NHANES 1999-2000, NHANES 2001-2002, and NHANES 2003-2004. […] For NHANES 1988-1994 and 1999-2004, multivariate-adjusted and univariate values for hemoglobin, hematocrit, and MCV and prevalence rates (%) for overall anemia and macrocytosis were determined according to sex, race-ethnicity, age, poverty, and vitamin/mineral supplement use (yes or no). Prevalence of anemia (%) based on low hemoglobin concentrations and prevalence of macrocytosis (%) based on high MCV values were determined for the aforementioned demographic categories. The differences in hemoglobin, hematocrit, MCV, and prevalence of anemia and macrocytosis between NHANES 1988-1994 and NHANES 1999-2004 were determined with a 2-tailed unpaired t test. […]

[5] = apparently healthy human subjects; cited from earlier work
[6] = B12 deficiency, concentration 0.3 (unit not given)
[7] = B12 deficiency, concentration 1 (unit not given)
[8] = B12 deficiency, concentration 3 (unit not given)
[9] = B12 deficiency, concentration 6 (unit not given)
[10] = B12 deficiency, concentration 15 (unit not given)
[11] = B12 deficiency, concentration 30 (unit not given)
[12] = concentration 0.3 (unit not given)
[13] = concentration 1 (unit not given)
[14] = concentration 3 (unit not given)
[15] = concentration 6 (unit not given)
[16] = concentration 30 (unit not given)
[17] = B12 deficiency, concentration 75 (unit not given)
[18] = B12 deficiency, concentration 300 (unit not given)
[19] = concentration 15 (unit not given)
[20] = concentration 300 (unit not given)

| Compound | dU suppression test value [1, 6] | dU suppression test value [1, 7] | dU suppression test value [1, 8] | dU suppression test value [1, 9] | dU suppression test value [1, 10] | dU suppression test value [1, 11] | dU suppression test value [2, 12] | dU suppression test value [2, 13] | dU suppression test value [2, 14] | dU suppression test value [2, 15] | dU suppression test value [2, 16] | effect on production of hemoglobin [3] | impact on homocysteine, methylmalonic acid and lactate dehydrogenase [3] | effect on MCV [3] | dU suppression test value [1, 17] | dU suppression test value [1, 18] | dU suppression test value [2, 19] | dU suppression test value [2, 20] | other results |
| --- | --- | --- | --- | --- | --- | --- | --- | --- | --- | --- | --- | --- | --- | --- | --- | --- | --- | --- | --- |
| Nc1nc(=O)c2c([nH]1)NCC(CNc1ccc(C(=O)N[C@@H](CCC(=O)O)C(=O)O)cc1)N2C=O (mixture of isomers) [folinic acid] | 4.5% | 2.5% | 1.9% | 2.0% | 2.2% | 1.6% | 3.4% | 1.9% | 1.9% | 1.3% | 1.0% | – | – | – | – | – | – | – | effectiveness in overcoming the defect in DNA precursor synthesis ([1]; all types of vitamin deficiency): most effective |
| Nc1nc2ncc(CNc3ccc(C(=O)N[C@@H](CCC(=O)O)C(=O)O)cc3)nc2c(=O)[nH]1 [folic acid] | – | 14.8% | 12% | – | – | – | – | 10.3% | – | – | – | reduces the production of hemoglobin | negative impact | leads to increases in MCV | – | – | – | – | effect on MCV in survey participants with elevated LDH levels ([3]; LDH > 198 U/L, as folate concentrations increased): increased the MCV; effect on red cell count ([3]; same folate levels, with vs without folic acid supplements): red cell count is improved in the absence of folic acid; incidence of macrocytosis [4]: increased; prevalence of anemia [4]: dropped; dU suppression test value ([1]; B12 deficiency, concentration 50 (unit not given)): 4.1%; dU suppression test value ([2]; concentration 5 (unit not given)): 5.5%; dU suppression test value ([2]; concentration 50 (unit not given)): 2.3% |
| CN1c2c(nc(N)[nH]c2=O)NC[C@@H]1CNc1ccc(C(=O)N[C@@H](CCC(=O)[O-])C(=O)[O-])cc1.[Ca+2] [me-THF, L-5-methyltetrahydrofolate] | – | – | 16.1% | – | – | 12.9% | – | – | 3.9% | 4.6% | 4.5% | promotes the production of hemoglobin | positive impact | generally leads to a reduction in MCV | 18.4% | 15.7% | 2.7% | 4.3% | concentration restoring normal dU suppression ([1]; vitamin B12 deficiency): > 300 µg/mL; effect on homocysteine levels [5]: decrease homocysteine levels |
| tetrahydrofolate [THF] | 10.8% | 8.1% | 9.3% | 6.3% | 4.9% | 5.0% | 14.3% | 8.6% | 4.0% | 2.5% | 2.2% | – | – | – | 3.5% | 2.4% | 2.1% | 1.9% | level giving correction of dU suppression ([1]; megaloblastic anemia due to vitamin B12 deficiency): above 6 mL/ml |
| α-(5,6-dimethylbenzimidazolyl)cobamide [B12] | – | – | – | – | – | – | – | – | – | – | – | – | – | – | – | – | – | – | dU suppression test value ([1]; B12 deficiency, 10 mcg/ml): 5.8%; dU suppression test value ((3H)-TdR incorporation with dU as percentage of incorporation without dU) ([1]; B12 deficiency, 100 mcg/ml): 5.7%; dU suppression test value ([2]; 10 mcg/ml): 12.3%; dU suppression test value ([2]; 100 mcg/ml): 16.3% |
